According to patent publication US20100298141A1, “SUBSTITUTED PYRIDINE N-OXIDE HERBICIDES” (E. I. DU PONT DE NEMOURS AND COMPANY, priority 2007, published 2010):

Legend:
giant foxtail [1] = experiment: Test A pre-/postemergence greenhouse test; format: in vivo, Setaria faberi; settings: for Plant response rating, Foxtail, Giant: 0 to 100 scale where 0 is no effect and 100 is complete control; for Foxtail, Giant plant response rating: 0 to 100 scale
How it was run: (§1)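 Untreated controls served as the reference for visual injury ratings taken about ten days after spraying. The non-phytotoxic solvent/surfactant formulation was applied preemergence to seeded loam and sand and postemergence to plants two to ten cm high.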

Goosegrass = experiment: Test C pre-/postemergence test; format: in vivo, Eleusin indica
How it was run: (§2)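 Test chemicals were formulated with surfactant in a non-phytotoxic solvent and sprayed both on freshly planted seeds (preemergence) and on 1- to 4-leaf plants of 2–18 cm (postemergence). Flooded-paddy pots received compound directly into 3 cm of standing water, maintained for the test.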

umbrella sedge = experiment: Test C flooded paddy test; format: in vivo, Cyperus difformis; settings: Flood, 62 g ai/ha; scale 0 to 100 (0 no effect, 100 complete control)
How it was run: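 Greenhouse pots flooded to 3 cm above soil at time of treatment received compound via the water, which stayed at that level.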

giant foxtail [2] = experiment: Test C pre-/postemergence test; format: in vivo, Setaria faberii
How it was run: as §2

corn = experiment: Test C pre-/postemergence test; format: in vivo, Zea mays
How it was run: as §2

cocklebur = experiment: Test C pre-/postemergence test; format: in vivo, Xanthium strumarium; settings: for Plant response rating, Cocklebur: scale 0 to 100, 0 no effect, 100 complete control
How it was run: as §2

morningglory [3] = experiment: Test C pre-/postemergence test; format: in vivo, Ipomoea coccinea
How it was run: as §2

soybean = experiment: Test C pre-/postemergence test; format: in vivo, Glycine max
How it was run: as §2

downy brome = experiment: Test C pre-/postemergence test; format: in vivo, Bromus tectorum
How it was run: as §2

yellow nutsedge = experiment: Test C pre-/postemergence test; format: in vivo, Cyperus esculentus
How it was run: as §2

woolly cupgrass = experiment: Test C pre-/postemergence test; format: in vivo, Eriochloa villosa
How it was run: as §2

common ragweed = experiment: Test C pre-/postemergence test; format: in vivo, Ambrosia elation
How it was run: as §2

lambsquarters = experiment: Test C pre-/postemergence test; format: in vivo, Chenopodium album; settings: Postemergence; for Plant response rating, Lambsquarters: scale 0 to 100, 0 no effect, 100 complete control
How it was run: as §2

johnsongrass = experiment: Test C pre-/postemergence test; format: in vivo, Sorghum halepense
How it was run: as §2

morningglory [4] = experiment: Test A pre-/postemergence greenhouse test; format: in vivo, Ipomoea spp.; settings: for Plant response rating, Morningglory: 0 to 100 scale where 0 is no effect and 100 is complete control; for Morningglory plant response rating: 0 to 100 scale
How it was run: as §1

crabgrass = experiment: Test A pre-/postemergence greenhouse test; format: in vivo, Digitaria sanguinalis; settings: for Plant response rating, Crabgrass, Large: 0 to 100 scale where 0 is no effect and 100 is complete control; for Crabgrass, Large plant response rating: 0 to 100 scale
How it was run: as §1

wheat = experiment: Test A pre-/postemergence greenhouse test; format: in vivo, Triticum aestivum; settings: for Plant response rating, Wheat: 0 to 100 scale where 0 is no effect and 100 is complete control; for Wheat plant response rating: 0 to 100 scale
How it was run: as §1

[5] = Postemergence, 500 g ai/ha, 0 is no effect, 100 is complete control
[6] = Preemergence, 125 g ai/ha, 0 no effect, 100 complete control
[7] = 62 g ai/ha, Preemergence, scale 0 to 100
[8] = 125 g ai/ha, preemergence, scale 0 (no effect) to 100 (complete control)
[9] = Postemergence, 62 g ai/ha, scale 0 to 100, 0 no effect, 100 complete control
[10] = Postemergence, 125 g ai/ha, scale 0 to 100, 0 no effect, 100 complete control
[11] = Postemergence, 250 g ai/ha, scale 0 to 100, 0 no effect, 100 complete control
[12] = Preemergence, 31 g ai/ha, scale 0 to 100 (0 no effect, 100 complete control)
[13] = preemergence, 250 g ai/ha, scale 0 (no effect) to 100 (complete control)

Cn1nc(C(F)(F)F)c(C[S+]([O-])c2ccc(F)c[n+]2[O-])c1OCC(F)(F)F (stereo not drawn) [Compound 67]
Plant response rating, Foxtail, Giant (giant foxtail [1]; Postemergence, 125 g ai/ha): 90
Foxtail, Giant plant response rating (giant foxtail [1]; [5]): 100
Foxtail, Giant plant response rating (giant foxtail [1]; [6]): 100
Plant response rating, Foxtail, Giant (giant foxtail [1]; Preemergence, 500 g ai/ha): 100
Goosegrass plant response rating (Goosegrass; [7]): 100
Goosegrass plant response rating (Goosegrass; [8]): 100
Plant response rating (0 to 100), Goosegrass (Goosegrass; Postemergence, 31 g ai/ha): 0
Plant response rating, Goosegrass (Goosegrass; [9]): 0
Plant response rating, Goosegrass (Goosegrass; [10]): 50
Plant response rating, Goosegrass (Goosegrass; [11]): 90
Plant response rating, Goosegrass (Goosegrass; [12]): 100
Goosegrass plant response rating (Goosegrass; [13]): 100
Plant response rating, Sedge, Umbrella (umbrella sedge): 100
Foxtail, Giant plant response rating (giant foxtail [2]; [7]): 100
Foxtail, Giant plant response rating (giant foxtail [2]; [8]): 100
Plant response rating (0 to 100), Foxtail, Giant (giant foxtail [2]; Postemergence, 31 g ai/ha): 0
Plant response rating, Foxtail, Giant (giant foxtail [2]; [9]): 0
Plant response rating, Foxtail, Giant (giant foxtail [2]; [10]): 40
Plant response rating, Foxtail, Giant (giant foxtail [2]; [11]): 70
Plant response rating, Foxtail, Giant (giant foxtail [2]; [12]): 80
Foxtail, Giant plant response rating (giant foxtail [2]; [13]): 100
Corn plant response rating (corn; [7]): 95
Corn plant response rating (corn; [8]): 95
Plant response rating (0 to 100), Corn (corn; Postemergence, 31 g ai/ha): 0
Plant response rating, Corn (corn; [9]): 0
Plant response rating, Corn (corn; [11]): 0
Plant response rating, Corn (corn; [12]): 45
Corn plant response rating (corn; [13]): 100
Cocklebur plant response rating (cocklebur; [8]): 0
Plant response rating (0 to 100), Cocklebur (cocklebur; Postemergence, 31 g ai/ha): 0
Plant response rating, Cocklebur (cocklebur; Postemergence, 62 g ai/ha): 0
Plant response rating, Cocklebur (cocklebur; Postemergence, 125 g ai/ha): 0
Plant response rating, Cocklebur (cocklebur; Postemergence, 250 g ai/ha): 0
Morningglory plant response rating (morningglory [3]; [7]): 95
Morningglory plant response rating (morningglory [3]; [8]): 100
Plant response rating (0 to 100), Morningglory (morningglory [3]; Postemergence, 31 g ai/ha): 0
Plant response rating, Morningglory (morningglory [3]; [9]): 0
Plant response rating, Morningglory (morningglory [3]; [10]): 0
Plant response rating, Morningglory (morningglory [3]; [11]): 0
Plant response rating, Morningglory (morningglory [3]; [12]): 60
Morningglory plant response rating (morningglory [3]; [13]): 100
Soybean plant response rating (soybean; [7]): 80
Soybean plant response rating (soybean; [8]): 100
Plant response rating (0 to 100), Soybean (soybean; Postemergence, 31 g ai/ha): 0
Plant response rating (0 to 100), Soybean (soybean; Postemergence, 62 g ai/ha): 40
Plant response rating, Soybean (soybean; [10]): 50
Plant response rating, Soybean (soybean; [11]): 80
Plant response rating, Soybean (soybean; [12]): 0
Soybean plant response rating (soybean; [13]): 100
Bromegrass, Downy plant response rating (downy brome; [7]): 100
Bromegrass, Downy plant response rating (downy brome; [8]): 100
Plant response rating (0 to 100), Bromegrass, Downy (downy brome; Postemergence, 31 g ai/ha): 0
Plant response rating, Bromegrass, Downy (downy brome; [9]): 10
Plant response rating, Bromegrass, Downy (downy brome; [10]): 40
Plant response rating, Bromegrass, Downy (downy brome; [11]): 60
Plant response rating, Bromegrass, Downy (downy brome; [12]): 100
Bromegrass, Downy plant response rating (downy brome; [13]): 100
Nutsedge, Yellow plant response rating (yellow nutsedge; [7]): 40
Nutsedge, Yellow plant response rating (yellow nutsedge; [8]): 40
Plant response rating (0 to 100), Nutsedge, Yellow (yellow nutsedge; Postemergence, 31 g ai/ha): 0
Plant response rating, Nutsedge, Yellow (yellow nutsedge; [9]): 0
Plant response rating, Nutsedge, Yellow (yellow nutsedge; [10]): 0
Plant response rating, Nutsedge, Yellow (yellow nutsedge; [11]): 0
Plant response rating, Nutsedge, Yellow (yellow nutsedge; [12]): 0
Nutsedge, Yellow plant response rating (yellow nutsedge; [13]): 60
Cupgrass, Woolly plant response rating (woolly cupgrass; [7]): 80
Cupgrass, Woolly plant response rating (woolly cupgrass; [8]): 98
Plant response rating (0 to 100), Cupgrass, Woolly (woolly cupgrass; Postemergence, 31 g ai/ha): 0
Plant response rating, Cupgrass, Woolly (woolly cupgrass; [9]): 0
Plant response rating, Cupgrass, Woolly (woolly cupgrass; [10]): 30
Plant response rating, Cupgrass, Woolly (woolly cupgrass; [11]): 50
Plant response rating, Cupgrass, Woolly (woolly cupgrass; [12]): 70
Cupgrass, Woolly plant response rating (woolly cupgrass; [13]): 100
Ragweed plant response rating (common ragweed; [7]): 100
Ragweed plant response rating (common ragweed; [8]): 100
Plant response rating (0 to 100), Ragweed (common ragweed; Postemergence, 31 g ai/ha): 0
Plant response rating (0 to 100), Ragweed (common ragweed; Postemergence, 62 g ai/ha): 0
Plant response rating, Ragweed (common ragweed; [10]): 50
Plant response rating, Ragweed (common ragweed; [11]): 55
Plant response rating, Ragweed (common ragweed; [12]): 100
Ragweed plant response rating (common ragweed; [13]): 100
Plant response rating (0 to 100), Lambsquarters (lambsquarters; 31 g ai/ha): 0
Plant response rating, Lambsquarters (lambsquarters; 62 g ai/ha): 0
Plant response rating, Lambsquarters (lambsquarters; 125 g ai/ha): 0
Plant response rating, Lambsquarters (lambsquarters; 250 g ai/ha): 10
Johnsongrass plant response rating (johnsongrass; [7]): 70
Johnsongrass plant response rating (johnsongrass; [8]): 80
Plant response rating (0 to 100), Johnsongrass (johnsongrass; Postemergence, 31 g ai/ha): 0
Plant response rating, Johnsongrass (johnsongrass; [9]): 0
Plant response rating, Johnsongrass (johnsongrass; [10]): 0
Plant response rating, Johnsongrass (johnsongrass; [11]): 0
Plant response rating, Johnsongrass (johnsongrass; [12]): 65
Johnsongrass plant response rating (johnsongrass; [13]): 85
Plant response rating, Morningglory (morningglory [4]; Postemergence, 125 g ai/ha): 70
Morningglory plant response rating (morningglory [4]; [5]): 100
Morningglory plant response rating (morningglory [4]; [6]): 70
Plant response rating, Morningglory (morningglory [4]; Preemergence, 500 g ai/ha): 100
Plant response rating, Crabgrass, Large (crabgrass; Postemergence, 125 g ai/ha): 90
Crabgrass, Large plant response rating (crabgrass; [5]): 90
Crabgrass, Large plant response rating (crabgrass; [6]): 100
Plant response rating, Crabgrass, Large (crabgrass; Preemergence, 500 g ai/ha): 100
Plant response rating, Wheat (wheat; Postemergence, 125 g ai/ha): 60
Wheat plant response rating (wheat; [5]): 70
Wheat plant response rating (wheat; [6]): 60
Plant response rating, Wheat (wheat; Preemergence, 500 g ai/ha): 100
